The values that follow come from US5585360A, “Peptide compounds derived from boronic acid” (Adir et Compagnie, priority 1994, dated 1996).

For data set [1], the target named is T1, purified human activated protein C (Homo sapiens, UniProt P04070).
T1 construct: purchased Stago
Kind of data set: Inhibition of activated protein C (pNA substrate S 2366). Format: biochemical. Particulars: enzyme 2 nM, 30 minutes at 20° C.; read-out: CI50 PCa. On the procedure:
(§1) In order to evaluate in vitro the selectivity of these products in respect of different serine proteases of fibrinolysis and coagulation, the same protocol is applied to purified human plasmin (2 nM, Stago), to purified human activated protein C (2 nM, Stago), to purified human activated factor X (2 nM, Calbiochem), to the tissue activator of plasminogen (2 nM, Calbiochem), to purified human urokinase (2 nM, Choay), to purified human plasma kallikrein (2 nM, Calbiochem), using as substrates different peptide para-nitroanilides: <Glu-Phe-Lys-pNA (0.50mM, S 2403, Kabi) for plasmin, N-Cbo-Arg-Gly-Arg-pNA (0.39 mM, S 2765, Kabi) for the factor Xa<Glu-Pro-Arg-pNA (0.52 mM, S 2366, Kabi) for activated protein C, H-D-Pro-Phe-Arg-pNA (0.45 mM, S 2302, Kabi) for kallikrein, H-(D)-Ile-Pro-Arg-pNA (0.48 mM, S 2288, Kabi) for the tissue activator of plasminogen and <Glu-Gly-Arg-pNA (0.56 mM, S 2444, Kabi) for urokinase.
(§2) Inhibitors, enzymes and substrates are diluted in the same buffer ([…] phosphate buffer, pH 7.4, containing 0.12M of sodium chloride and 0.05% of bovine albumin serum) and then distributed into a microplate made of polystyrene in a volume of 50 1.
(§3) The fibrin formed by the thrombin or the para-nitroanilide released by the action of the serine protease are measured spectrophotometrically at 405 nm after 5 or 30 minutes' reaction at 20° C. respectively.

The target in data set [2] is T2, purified human plasmin (Homo sapiens, UniProt P00747).
T2 construct: purified human plasmin (2 nM, Stago); purchased Stago
T2 sequence (P00747 581-810 limits assumed): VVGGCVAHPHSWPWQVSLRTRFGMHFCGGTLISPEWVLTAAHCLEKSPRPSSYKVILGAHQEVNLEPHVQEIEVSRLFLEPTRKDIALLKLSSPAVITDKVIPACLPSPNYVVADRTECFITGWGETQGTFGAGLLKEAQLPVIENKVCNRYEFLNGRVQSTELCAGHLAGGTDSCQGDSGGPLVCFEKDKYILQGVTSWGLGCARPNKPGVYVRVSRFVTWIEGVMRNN
T2 sequence (P00747 97-580 partner limits assumed): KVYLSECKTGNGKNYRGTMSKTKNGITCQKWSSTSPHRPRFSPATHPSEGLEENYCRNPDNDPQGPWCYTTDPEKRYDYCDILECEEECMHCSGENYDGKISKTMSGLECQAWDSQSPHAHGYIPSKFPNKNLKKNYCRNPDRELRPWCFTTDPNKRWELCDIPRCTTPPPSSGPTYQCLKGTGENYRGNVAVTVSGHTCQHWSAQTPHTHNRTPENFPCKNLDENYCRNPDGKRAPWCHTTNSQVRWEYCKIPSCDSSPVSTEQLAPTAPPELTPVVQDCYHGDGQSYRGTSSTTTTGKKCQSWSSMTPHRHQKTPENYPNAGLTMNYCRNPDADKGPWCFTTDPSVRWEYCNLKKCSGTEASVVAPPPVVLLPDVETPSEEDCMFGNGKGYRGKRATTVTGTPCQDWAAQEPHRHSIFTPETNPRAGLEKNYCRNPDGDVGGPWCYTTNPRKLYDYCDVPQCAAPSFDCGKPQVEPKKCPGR
Kind of data set: Inhibition of plasmin (pNA substrate S 2403). Format: biochemical. Particulars: enzyme 2 nM, 30 minutes at 20° C.; read-out: CI50 Plasmin. As for the experimental part: as §1, §2, §3

Data set [3] addresses T3, purified human activated factor X (Homo sapiens, UniProt P00742).
T3 construct: purchased Calbiochem
Kind of data set: Inhibition of factor Xa (pNA substrate S 2765). In kind it is biochemical. Particulars: enzyme 2 nM, 30 minutes at 20° C.; read-out: CI50 FXa. On the procedure:
as §1, §2, §3

In data set [4] the test system is prothrombin time (PT), plasma. Kind of data set: Anticoagulant activity, prothrombin time (PT) in human plasma. Format: biochemical, man. Particulars: human platelet-depleted plasma, 2 min at 37° C., calcium thromboplastin. As for the experimental part: (§4) In the presence of a standard quantity of thrombin or of calcium thromboplastin a normal plasma coagulates in a defined and constant time, called thrombin time (TT) and prothrombin time (PT) respectively. Venous blood is collected at the elbow bend into a trisodium citrate (0.109M) solution. A plasma depleted in platelets is obtained by centrifuging the blood samples (3000 g, 15 minutes). The thrombin time is obtained with the Thrombin Prest (Stago) reagent and the prothrombin time with the Neoplastine (Stago) reagent. They are determined automatically by employing an ST4 (Stago) coagulometer. […] In these conditions the TT obtained in the control plasma is of the order of 20 seconds in man, and PT of the order of 12 seconds. The activity of an inhibitor is evaluated by its ability to lengthen these times when compared with the control. In these conditions the compounds of the invention permit a lengthening of the thrombin time and of the prothrombin time of 50-fold and more. The effect of the inhibitors is measured and the concentration which doubles the coagulation time (CTT2 for the thrombin time and CPT2 for the prothrombin time) is determined.

Data set [5] concerns the target T4, tissue activator of plasminogen (Homo sapiens, UniProt P00750).
T4 construct: purchased Calbiochem
Kind of data set: Inhibition of tPA (pNA substrate S 2288). In kind it is biochemical. To be noted: enzyme 2 nM, 30 minutes at 20° C.; read-out: CI50 tPA. As for the experimental part:
as §1, §2, §3

In data set [6] the test system is thrombin time (TT), plasma. Kind of data set: Anticoagulant activity, thrombin time (TT) in human plasma. In kind it is biochemical, man. Particulars: human platelet-depleted plasma, 2 min at 37° C. On the procedure: as §4
In data set [7] the target is T5, purified human plasma kallikrein (Homo sapiens, UniProt P03952).
T5 construct: purified human plasma kallikrein (2 nM, Calbiochem); purchased Calbiochem
T5 sequence (P03952 391-638 limits assumed): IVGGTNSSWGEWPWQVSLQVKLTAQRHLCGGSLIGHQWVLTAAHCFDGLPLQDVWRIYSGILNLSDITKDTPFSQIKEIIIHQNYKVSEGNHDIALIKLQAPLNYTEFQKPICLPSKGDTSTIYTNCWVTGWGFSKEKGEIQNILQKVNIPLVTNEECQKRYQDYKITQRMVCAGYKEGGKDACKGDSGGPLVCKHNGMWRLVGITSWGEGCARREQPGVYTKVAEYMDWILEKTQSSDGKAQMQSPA
T5 sequence (P03952 20-390 partner limits assumed): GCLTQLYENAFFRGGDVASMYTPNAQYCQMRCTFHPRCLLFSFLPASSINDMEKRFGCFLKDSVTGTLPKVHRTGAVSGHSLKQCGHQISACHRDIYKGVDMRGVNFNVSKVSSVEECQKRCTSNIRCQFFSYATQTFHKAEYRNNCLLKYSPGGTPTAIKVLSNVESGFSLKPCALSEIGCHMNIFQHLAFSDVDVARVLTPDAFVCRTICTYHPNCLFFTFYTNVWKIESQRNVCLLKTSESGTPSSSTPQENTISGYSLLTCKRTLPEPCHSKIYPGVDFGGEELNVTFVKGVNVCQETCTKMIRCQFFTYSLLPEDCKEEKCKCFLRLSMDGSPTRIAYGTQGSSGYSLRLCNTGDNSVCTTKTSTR
Kind of data set: Inhibition of plasma kallikrein (pNA substrate S 2302). Format: biochemical. Particulars: enzyme 2 nM, 30 minutes at 20° C.; read-out: CI50 Kalli. On the procedure: as §1, §2, §3

Data set [8] addresses T6, purified human urokinase (Homo sapiens, UniProt P00749).
T6 construct: purchased Choay
Kind of data set: Inhibition of urokinase (pNA substrate S 2444). In kind it is biochemical. Particulars: enzyme 2 nM, 30 minutes at 20° C.; read-out: CI50 Urokinase. As for the experimental part: as §1, §2, §3

Data set [9] addresses T7, human thrombin (Homo sapiens, UniProt P00734).
T7 construct: human thrombin (Sigma, specific activity 3220 NIHU/mg); purchased Sigma
Kind of data set: Inhibition of thrombin (fibrinogen substrate, fibrin formation at 405 nm). In kind it is biochemical. Particulars: for IC50: thrombin 0.7 nM, preincubation 20° C. 10 minutes, fibrinogen, read-out: CI50 Thrombin. As for the experimental part:
In order to evaluate in vitro the inhibiting activity of the boro-Arginic products on human thrombin (Sigma, specific activity 3220 NIHU/mg), purified human fibrinogen ([…], Enzyme Research Laboratories) was added to a given quantity of thrombin (0.7 nM) previously incubated with or without the inhibitor to be tested (20° C., 10 minutes).
as §2, §3

For data set [10], the system named is activated cephalin time (ACT). Kind of data set: Anticoagulant activity ex vivo, i.v. route in the dog (ACT). To be noted: for ACT increase index: 0.5 mg/kg i.v. From the text: The dogs are left breathing freely.
Data set [11] deals with platelets. Kind of data set: Number of platelets after i.v. administration in the dog. Particulars: 0.25 mg/kg i.v.
Protocol: Fasted dogs are anaesthetized with pentobarbital (30 mg/kg, i.v.). A femoral artery and a saphenous vein are exposed and catheterized. The dogs are left breathing freely.
For data set [12], the system named is platelets. Kind of data set: Number of platelets after oral administration in the dog. Particulars: 2.5 mg/kg oral. In kind it is in vivo. On the procedure:
(§5) After a blood sample has been taken, the products are administered orally. At specified times after the treatment the blood is sampled intravenously. The plasma is prepared, the platelets are counted and the thrombin time test is carried out.
(§6) The activity is durable (4 hours).

Data set [13] concerns thrombin time. Kind of data set: Anticoagulant activity ex vivo, oral route in the dog (thrombin time). To be noted: 2.5 mg/kg oral. On the procedure:
as §5, §6

For data set [14], the system named is activated cephalin time (ACT). Kind of data set: Anticoagulant activity ex vivo, i.v. route in the rat (ACT). Particulars: 0.25 mg/kg i.v. As for the experimental part: OFA rats, fasted or not, are anaesthetized with pentobarbital (60 mg/kg, i.p.). The carotid artery and the jugular vein are exposed and catheterized. The catheters are purged with citrated physiological saline (1/40). After installation of the catheters a sampling of 1.5 cm^3 of arterial blood is performed on 0.109 M citrate (1/9).
30 minutes later the product to be tested is administered i.v. in a volume of 1 ml.
Arterial samplings (1.5 ml) are then performed at 1 minute 30, 5, 15, 30 and 60 minutes.
At each sampling 1.5 ml of citrated physiological saline is reinjected into the animal via the carotid.
The tubes of blood are centrifuged for 5 minutes at 3000 g (preparation of the plasma).
100 1 of plasma are incubated with 100 1 of activated cephalin. The time of appearance of the coagulation phenomenon is measured after addition of 100 1 of calcium.
The results are reproduced in the following table and show the indices of increase in the coagulation time.

T4 sequence (P00750 23-562 limits assumed): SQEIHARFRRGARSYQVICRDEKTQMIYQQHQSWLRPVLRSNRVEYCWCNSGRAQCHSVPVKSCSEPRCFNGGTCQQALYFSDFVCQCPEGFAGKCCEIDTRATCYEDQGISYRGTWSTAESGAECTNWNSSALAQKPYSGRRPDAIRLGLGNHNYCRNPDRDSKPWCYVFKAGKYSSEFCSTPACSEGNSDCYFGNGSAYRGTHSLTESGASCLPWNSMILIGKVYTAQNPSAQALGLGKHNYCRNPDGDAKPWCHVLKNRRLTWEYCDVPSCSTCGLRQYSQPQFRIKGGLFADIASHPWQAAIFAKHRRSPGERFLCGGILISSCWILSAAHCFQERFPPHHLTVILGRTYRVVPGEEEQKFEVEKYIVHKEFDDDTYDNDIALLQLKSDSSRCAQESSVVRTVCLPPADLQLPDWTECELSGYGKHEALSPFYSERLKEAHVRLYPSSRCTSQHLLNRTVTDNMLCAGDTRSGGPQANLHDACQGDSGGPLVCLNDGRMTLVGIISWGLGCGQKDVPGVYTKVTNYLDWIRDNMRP
T1 sequence (P04070 212-450 limits assumed): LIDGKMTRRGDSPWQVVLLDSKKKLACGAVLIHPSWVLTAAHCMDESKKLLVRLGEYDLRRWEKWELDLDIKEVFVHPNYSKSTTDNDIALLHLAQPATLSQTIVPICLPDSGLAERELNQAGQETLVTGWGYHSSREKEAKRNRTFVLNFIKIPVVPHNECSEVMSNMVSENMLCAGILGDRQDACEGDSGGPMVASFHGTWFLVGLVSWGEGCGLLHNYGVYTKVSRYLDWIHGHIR
T1 sequence (P04070 43-197 partner limits assumed): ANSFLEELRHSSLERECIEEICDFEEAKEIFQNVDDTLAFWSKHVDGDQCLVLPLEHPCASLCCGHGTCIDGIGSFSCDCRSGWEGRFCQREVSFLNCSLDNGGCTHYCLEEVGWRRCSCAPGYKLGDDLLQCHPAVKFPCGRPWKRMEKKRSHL
T3 sequence (P00742 235-488 limits assumed): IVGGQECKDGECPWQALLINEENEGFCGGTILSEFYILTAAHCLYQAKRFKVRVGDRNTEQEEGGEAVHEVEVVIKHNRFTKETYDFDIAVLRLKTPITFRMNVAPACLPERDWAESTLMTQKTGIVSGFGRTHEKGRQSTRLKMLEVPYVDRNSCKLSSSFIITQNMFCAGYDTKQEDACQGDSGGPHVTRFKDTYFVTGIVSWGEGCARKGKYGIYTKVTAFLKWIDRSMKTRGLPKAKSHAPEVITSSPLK
T3 sequence (P00742 41-179 partner limits assumed): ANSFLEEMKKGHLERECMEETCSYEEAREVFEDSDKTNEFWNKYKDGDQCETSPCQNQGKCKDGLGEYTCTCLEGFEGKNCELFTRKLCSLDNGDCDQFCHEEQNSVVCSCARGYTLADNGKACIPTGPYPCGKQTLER

For the molecule “1-(R)-{[Ac-(R)Phe-(N-cyclopentyl)Gly]amino}-4-(1N-methylguanidino)butylboronic Acid Acetate [Example 8]”, the IC50 was 458 nM in data set [1]; over 33000 nM in data set [2]; over 330000 nM in [3]; 395 nM in data set [5]; 1080 nM in data set [7]; over 33000 nM in [8]. For the same molecule, the IC50 in data set [9] was found to be 0.74 nM. Besides, the “CTP2 (concentration which doubles the prothrombin time)” value (“CTP2” for short) in data set [4] came out at 3.06 µM. The “CTT2 (concentration which doubles the thrombin time)” value (shortened to “CTT2”) in data set [6] was found to be 0.30 µM. In addition, the “selectivity for thrombin versus other serine proteases, compared with DUP 714” value (“selectivity” below) in [9] (comparison of CI50 values) is reported as “much more selective inhibitors of thrombin than DUP 714”.
As for `CC(=O)N[C@H](Cc1ccccc1)C(=O)N1CCC[C@H]1C(=O)N[C@@H](CCCN=C(N)N)B(O)O` [DUP 714, Ac-(D)Phe-Pro-Arg-boronic acid, reference compound], in [10] (0.25 mg/kg i.v.), the “increase in the ACT” value is listed as “comparable with that obtained with Example 2 in a dosage of 0.5 mg/kg”. In addition, the IC50 was determined as 15 nM in [1]; 24 nM in data set [2]; 81 nM in data set [3]; 5.3 nM in [5]; 6.8 nM in data set [7]; 22 nM in [8]. Further, in data set [4], the “CTP2” value is 2.63 µM. In addition, in data set [6], the “CTT2” value is 0.18 µM. In data set [11], this molecule came in with a thrombopenia of 20%.
As to `CC(=O)N[C@H](Cc1ccccc1)C(=O)N(CC(=O)N[C@@H](CCCSC(=N)N)B(O)O)C1CCCC1.CC(=O)O` [Example 2, 1-(R )-{[Ac-(R)Phe-(N-cyclopentyl)Gly]amino}-4-(isothioureido)butylboronic Acid Acetate], the ACT increase index in [10] (1.5 minutes) was found to be 9.6; in data set [10] (5 minutes), 3.6; in data set [10] (15 minutes) it was 1.9; in [10] (30 minutes) it was 1.4; in [10] (60 minutes) it was 1.1. In addition, the IC50 is 593 nM in [1]; 1040 nM in data set [2]; over 100000 nM in data set [3]; 108 nM in data set [5]; 164 nM in data set [7]; 2500 nM in [8]. In addition, in [9], the IC50 was found to be 0.59 nM. Moreover, the “modification of the number of platelets” value in data set [12] is on record as “without modification of the number of platelets”. Also, the “duration of activity (TT increase)” value in data set [13] turned out to be 4 h. Besides, the “increase in the TT” value in data set [13] (0.5 hours) was 1.1; in [13] (1 hour) it was 1.6; in data set [13] (2 hours), 1.5; in data set [13] (4 hours) it was 1.1. Besides, in data set [4], the “CTP2” value was determined as 2.29 µM. Moreover, in data set [6], the “CTT2” value came out at 0.20 µM. Moreover, the “index of increase in the coagulation time (ACT)” value in [14] (1.5 minutes) is listed as 2.6; in data set [14] (5 minutes), 1.8; in [14] (15 minutes), 1.2; in data set [14] (30 minutes) it was 1.2; in [14] (60 minutes) it was 1.1. In addition, in [9] (comparison of CI50 values), the “selectivity” value is “much more selective inhibitors of thrombin than DUP 714”. In addition, in data set [9] (comparison of CI50 values), the “thrombin inhibition compared with DUP 714” value is listed as “as powerfully as DUP 7 14”.
On to `CC(=O)NC(Cc1ccccc1)C(=O)N(CC(=O)N[C@@H](CCCSC(=N)N)B(O)O)C1CCCCC1.CC(=O)O` (stereo partly drawn) [Example 4, 1-(R)-{[Ac-(R,S)Phe-(N-cyclohexyl)Gly]amino}-4-(isothioureido) butylboronic Acid Acetate], for which the “CTP2” value in data set [4] worked out at 2.44 µM. For the same molecule, the “CTT2” value in data set [6] was found to be 0.34 µM.
Turning to `CC(=O)N[C@H](Cc1ccccc1)C(=O)N(CC(=O)N[C@@H](CCCSC(=N)N)B(O)O)C1CCCCC1.CC(=O)O` [Example 6, 1-(R)-{[Ac-(R)Phe-(N-cyclohexyl)Gly]amino}-4-(isothioureido)butylboronic Acid Acetate], the IC50 came to 467 nM in data set [1]; 1260 nM in data set [2]; 10800 nM in [3]; 92 nM in data set [5]; 181 nM in data set [7]; 1510 nM in [8]. Also, the IC50 in data set [9] came out at 1.75 nM. Also, the “CTP2” value in data set [4] came to 2.92 µM. Besides, the “CTT2” value in [6] was found to be 0.29 µM. Besides, in [9] (comparison of CI50 values), the “selectivity” value is “much more selective inhibitors of thrombin than DUP 714”.
